# Values quoted from earlier work as cited in US11647710B2, “Method for preparation of soybean leaf having high content of isoflavone derivative in dark condition and soybean leaf having high content of isoflavone derivative prepared thereby” (INDUSTRY-ACADEMIC COOPERATION FOUNDATION GYEONGSANG …, priority 2019, dated 2023).
# Molecular target: ER-beta (estrogen receptor beta) (Rattus norvegicus, UniProt Q62986)
# Conditions: Endocrinology 1997, 863; cited from earlier work
# ER-beta (estrogen receptor beta), sequence (Q62986 whole entry): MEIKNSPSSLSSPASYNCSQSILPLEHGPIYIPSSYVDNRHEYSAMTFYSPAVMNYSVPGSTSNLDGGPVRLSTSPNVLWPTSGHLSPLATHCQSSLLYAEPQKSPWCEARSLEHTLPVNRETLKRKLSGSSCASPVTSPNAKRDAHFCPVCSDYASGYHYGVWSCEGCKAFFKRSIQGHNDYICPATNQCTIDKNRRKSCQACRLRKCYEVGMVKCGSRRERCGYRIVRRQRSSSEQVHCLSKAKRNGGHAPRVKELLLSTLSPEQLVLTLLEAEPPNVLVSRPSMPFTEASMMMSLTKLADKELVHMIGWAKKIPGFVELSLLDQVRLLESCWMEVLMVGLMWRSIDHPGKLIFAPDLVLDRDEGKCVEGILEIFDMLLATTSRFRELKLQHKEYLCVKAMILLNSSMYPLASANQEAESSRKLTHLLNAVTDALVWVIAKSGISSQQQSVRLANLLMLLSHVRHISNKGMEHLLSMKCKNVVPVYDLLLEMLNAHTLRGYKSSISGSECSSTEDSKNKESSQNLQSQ
smiles,measurement,value
O=c1c(-c2ccc(O)cc2)coc2cc(O)ccc12 [daidzein],affinity for ER-beta,high affinity
